ChEMBL document CHEMBL4613303, “New Dihydrothiazole Benzensulfonamides: Looking for Selectivity toward Carbonic Anhydrase Isoforms I, II, IX, and XII” (ACS Med Chem Lett, 2020)

Each compound was assayed against Carbonic anhydrase 9 (Homo sapiens, UniProt Q16790) (assay: Inhibition of recombinant human carbonic anhydrase 9 incubated for 6 hrs prior to testing measured for 10 to 100 secs by phenol red-based stopped-flow CO2 hydration assay).

Structure (SMILES)	Ki
CCn1c(-c2cccc([N+](=O)[O-])c2)cs/c1=N/c1ccc(S(N)(=O)=O)cc1	214 nM
CCn1c(-c2ccc(C#N)cc2)cs/c1=N/c1ccc(S(N)(=O)=O)cc1	4330 nM
CCn1c(-c2ccc(F)cc2F)cs/c1=N/c1ccc(S(N)(=O)=O)cc1	144 nM
CCn1c(-c2ccc(OC)cc2)cs/c1=N/c1ccc(S(N)(=O)=O)cc1	205 nM
CCn1c(-c2ccc(Br)cc2)cs/c1=N/c1ccc(S(N)(=O)=O)cc1	3390 nM
CCn1c(-c2ccc(-c3ccccc3)cc2)cs/c1=N/c1ccc(S(N)(=O)=O)cc1	4310 nM
CCn1c(-c2ccc([N+](=O)[O-])cc2)cs/c1=N/c1ccc(S(N)(=O)=O)cc1	4320 nM
CCn1c(-c2ccc(F)cc2)cs/c1=N/c1ccc(S(N)(=O)=O)cc1	3930 nM

Continued by falling Ki, values first:

Ki	Structure (SMILES)
358 nM	CCn1c(-c2ccc(C)cc2)cs/c1=N/c1ccc(S(N)(=O)=O)cc1
297 nM	CCn1c(-c2cccs2)cs/c1=N/c1ccc(S(N)(=O)=O)cc1
248 nM	CCn1c(-c2ccccc2)cs/c1=N/c1ccc(S(N)(=O)=O)cc1
225 nM	CCn1c(-c2ccc(Cl)cc2Cl)cs/c1=N/c1ccc(S(N)(=O)=O)cc1
109 nM	CCn1c(-c2ccc(Cl)cc2)cs/c1=N/c1ccc(S(N)(=O)=O)cc1
